Assay results: US20190127705A1, “METHOD FOR CULTURING MULTIPLE OVARIAN FOLLICLES BY USING ANGIOTENSIN II RECEPTOR AGONIST” (SEOUL NATIONAL UNIVERSITY R&DB FOUNDATION, priority 2016, published 2019)
“Also recorded” adds a separate entry of the source.

Columns and labels:
Assay type in all cases: cell-based, mouse
[1] = test system: single pre-antral follicle; test: in vitro culturing of a single pre-antral follicle (growth, ovulation and maturation after ovulation induction); conditions: for ovulation rate / growth of the follicle: single-follicle culturing, 10 ug/mL from day 5; for ovulation rate: 16 to 18 hours after ovulation induction, versus untreated single-follicle, FIG. 2; for growth of the follicle: fifth day compared with 13th day, versus untreated control (CTL), FIG. 1
Source text: (§1) Specifically, an ovary was separated from a 14-day old mouse and placed in HBSS (Hank's balanced salt solution) containing 10% bovine serum. Then, pre-antral follicles in an early developmental stage were mechanically separated using a 28-gauge syringe needle. At this time, degenerated pre-antral follicles were removed, and healthy pre-antral follicles were used for a pre-antral follicle culturing. One separated pre-antral follicle was used for a single-follicle culturing, and a cluster including two to four pre-antral follicles joined together was used for culturing a cluster of multiple follicles.
(§2) After 25 20 μl culture liquid droplets were made on each culture dish (Falcon 3000, BD Biosciences, 60×15 mm), the collected single pre-antral follicle, or the cluster of multiple follicles consisting of 2 to 4 joined pre-antral follicles were seeded to each droplet. Then, those follicles were cultured in a 5% CO2 incubator at 37° C. for about 2 weeks. The culture liquid used here is Opti-MEM medium (Invitrogen) including insulin, 5% bovine serum, recombinant follicle stimulating hormone (FSH, Gonal-F®, Merck Serono, 0.2 IU/mL) and recombinant luteinizing hormone (LH, Luveris®, Merck Serono, 0.1 IU/mL). The culture liquid was changed in half with new medium every two days. In culturing process, a follicle morphology was observed using an inverted microscope (TE-2000; Nikon).
(§3) In order to observe a follicle culturing effect based on a regulation of the angiotensin II receptor, the single pre-antral follicle and the cluster of multiple follicles were compared and analyzed by divided into 3 groups: control group, angiotensin II receptor agonist (CGP-42112, Sigma)-treated group, and angiotensin II receptor antagonist (Saralasin, Sigma)-treated group. Specifically, the single pre-antral follicle and the cluster of multiple follicles were treated with the angiotensin II receptor agonist or the angiotensin II receptor antagonist to have a concentration of 10 ug/mL from day 5 of culturing.
(§4) On the 12th day of the culturing, it was observed that the pre-antral follicle was matured into an antral follicle. Then, the antral follicle was treated with recombinant human […], rhCG, Ovidrel®, Merck Serono) of 1.5 IU/m and human epidermal growth factor (hEGF) of 5 ng/mL in order to induce ovulation. At 16 to 18 hours after the ovulation induction, ovulation rate and maturation rate were calculated.
(§5) Specifically, the ovulation rate was calculated by counting the number of follicles ovulated after administration of the human […] and the human epidermal growth factor among the seeded follicles, and the maturation rate was calculated by counting the number of ova in MII phase among the ovulated ova.
In order to investigate effect of angiotensin II in culturing a single-follicle, growth and maturation rates based on the treatment with angiotensin II receptor agonist or angiotensin II receptor antagonist were intended to be investigated. […] Further, ovulation rates were investigated by inducing ovulation in the cultured follicles.

[2] = test system: cluster of multiple follicles; test: in vitro culturing of a cluster of multiple follicles (growth, follicle fluid, maturation rate); conditions: for growth of the cluster of multiple follicles: cluster of two to four joined follicles, fifth day compared with 13th day
Source text: as §1, §2, §3, §4
as §5, with “ova. […]” for “ova.”

[3] = test system: mature follicle ovulated from cultured follicles; test: in vitro fertilization of ova from cultured follicles and embryo observation
Protocol: In vitro fertilization was performed to evaluate fertilization rates of the ova obtained by the induction of ovulation. Specifically, a mature follicle ovulated in HTF (human tubal fluid) medium in the 5% CO2 incubator at 37° C. was fertilized with a sperm collected from a 8 week old male C57BL6 mouse. When cell division occur or two pronuclei are seen and a second polar body is observed, the ovum is regarded as fertilized.
In order to further confirm the effect of the angiotensin II in culturing the cluster of multiple follicles, maturation rate and fertilization rate were intended to be checked. Mature follicles were ovulated by treating them with the angiotensin II receptor agonist and inducing the ovulation via the method of Example 1 to Example 5. Then, the ovulated mature follicles were fertilized with sperms.

[4] = test system: multiple follicles cultured collectively; test: culturing multiple follicles collectively (growth, follicle fluid); conditions: multiple follicles collectively treated with agonist; bottom of FIG. 8
Source text: as §1, with “follicles. […]” for “follicles.”
In order to observe a follicle culturing effect based on a regulation of the angiotensin II receptor, the single pre-antral follicle and the cluster of multiple follicles were compared and analyzed by divided into 3 groups: control group, angiotensin II receptor agonist (CGP-42112, Sigma)-treated group, and angiotensin II receptor antagonist (Saralasin, Sigma)-treated group. […]
On the 12th day of the culturing, it was observed that the pre-antral follicle was matured into an antral follicle. […] At 16 to 18 hours after the ovulation induction, ovulation rate and maturation rate were calculated. […]

[5] = 10 ug/mL from day 5, FIG. 3, FIG. 8 top

Row | Compound | maturation rate ([1]; single-follicle culturing with agonist treatment, ova in MII phase among ovulated ova, FIG. 5) | ovulation rate [1] | growth of the follicle [1] | accumulation of the follicle fluid in the follicle ([2]; cluster of multiple follicles, 10 ug/mL from day 5, FIG. 3, FIG. 8 top) | growth of the cluster of multiple follicles [2, 5] | maturation rate ([2]; culturing of the cluster of multiple follicles with agonist treatment, ova in MII phase among ovulated ova, FIG. 5) | cleavage of an embryo ([3]; after fertilizing matured follicles from agonist-treated cultures, FIG. 7) | fertilization rates ([3]; single-follicle culturing compared with culturing of the cluster of multiple follicles, agonist treated, FIG. 6) | follicle fluid accumulation in the follicles [4] | growth of the follicles [4]
1 | CGP-42112 [angiotensin II receptor agonist] | 11% | not significantly different | growing at a level similar to a single-follicle (control group, CTL) that had not been treated | increased; also recorded: clearly observed in the all follicles | growth of all follicles was significantly promoted; also recorded: significantly promoted to grow | 26.8% | progression of cleavage of an embryo was observed | no significant difference | almost no follicle fluid accumulation | all follicles promoted to grow but fell into apoptosis during development
2 | CNCC(=O)N[C@@H](CCCN=C(N)N)C(=O)N[C@H](C(=O)N[C@@H](Cc1ccc(O)cc1)C(=O)N[C@H](C(=O)N[C@@H](Cc1cnc[nH]1)C(=O)N1CCC[C@H]1C(=O)N[C@@H](C)C(=O)O)C(C)C)C(C)C [angiotensin II receptor antagonist, Saralasin] |  | not significantly different | growing at a level similar to a single-follicle (control group, CTL) that had not been treated |  | did not grow simultaneously but fell into apoptosis during development |  |  |  |  | 
